The values below come from US20220127281A1, “HETEROARYL COMPOUNDS THAT INHIBIT G12C MUTANT RAS PROTEINS” (AstraZeneca AB, priority 2017, published 2022).

Each structure is given as a SMILES string.

Assay [1] has as its target T1, GDP loaded biotinylated KRas^G12C protein (Homo sapiens, UniProt P01116, G12C).
T1 construct: biotin (biotinylated); made in house
The assay is described as follows: KRasG12C mass spectrometry adducting assay. Type of assay: binding. Particulars: test compound final concentration 10 μM, 4 μM KRasG12C, react for 4 hours. On the procedure: KRasG12C Mass Spectrometry Adducting Assay
Enzyme solutions were prepared in assay buffer containing 20 mM HEPES (pH 7.5), 5 mM MgCl2, and 150 mM NaCl. […] The plate was sealed before reading on a Xevo G2 QTOF (Waters) and Acquity LC system (Waters). […] Blank samples were run in between each test sample.
Data was analysed in Mass Lynx software (Waters), the Total ion count (TIC) trace was used and the eluted protein peak data combined. Using the combined spectrum the data was deconvoluted using MaxEnt1 method. The peak area for apo-protein KRas^G12C (APO) and KRAS+relative cmpd mass (adduct) were measured, and a percentage adduct was calculated using the following calculation:
Percent adduct=100*(area of adduct peak/(sum of APO+adduct peaks)

Assay [2] has as its target T1, GDP loaded biotinylated KRas^G12C protein. The assay is described as follows: KRasG12C functional assay. It is filed as biochemical. Particulars: HTRF FRET readout of SOS-mediated nucleotide exchange and GST-Raf RBD binding; samples incubated for 4 hrs; read-out: KRasG12C functional assay IC50 value. On the procedure:
KRasG12C Functional Assay
All enzyme and substrate solutions were prepared in assay buffer containing 20 mM HEPES (pH 7.5), 5 mM MgCl2, 150 mM NaCl, and 0.01% Tween 20. […] In a separate mix 20 nM GST-Raf Ras binding domain (GST-Raf RBD, purified in house) and 4 μg/ml anti-GST XL665 antibody (Cisbio) was prepared in assay buffer containing 50 mM Potassium Fluoride and 0.05 mg/ml BSA and equilibrated for 4 hours before adding 0.6 μM Guanosine 5′-[γ-thio]triphosphate (GTPγS, Sigma) and 0.08 μM SOS (purified in house). 5 μl of the GST-RAF RBD mix was then dispensed into each well of the assay plate. […] This is detected simultaneously via the specific binding interaction between active GTPγS KRas^G12C with GST-Raf RBD which brings the europium and XL665 into close proximity enabling an increased FRET signal to be detected on a Pherastar (BMG) plate reader equipped with the HTRF filter module. […] IC50 values were calculated from normalised dose-response response FRET data curve fitted in Genedata screener (Basel, Switzerland).
In general terms: TR-FRET usually uses a lanthanide donor and a delayed reading to cut background.

T1 sequence (P01116 1-188 isoform P01116-2 G12C): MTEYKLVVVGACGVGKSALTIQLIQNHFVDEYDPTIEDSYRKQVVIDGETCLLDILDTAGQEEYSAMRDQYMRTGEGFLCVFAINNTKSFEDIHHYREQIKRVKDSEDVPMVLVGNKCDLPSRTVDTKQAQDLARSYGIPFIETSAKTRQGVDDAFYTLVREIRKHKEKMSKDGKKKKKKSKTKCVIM

By IC50 is commonly meant the concentration needed to halve the response being measured. `C=CC(=O)N1CCN2c3ncnc4cc(-c5cccc6c5CN(C)CC6)c(Cl)c(c34)OC[C@@H]2C1` [Example 34, 1-[(8aS)-6-Chloro-5-(2-methyl-1,2,3,4-tetrahydroisoquinolin-8-yl)-8a,9,11,12-tetrahydropyrazino[2′,1′:3,4][1,4]oxazepino[5,6,7-de]quinazolin-10(8H)-yl]prop-2-en-1-one]: the “KRasG12C M.S. Binding Mean adduct %” value in assay [1] is given as 8%. In addition, the IC50 in assay [2] stood at 3470 nM.
In the same order, the values of `C=CC(=O)N1CCN2c3ncnc4cc(-c5ccccc5OC(F)(F)F)c(Cl)c(c34)OC[C@@H]2C1` [Example 35, 1-[(8aS)-6-Chloro-5-[2-(trifluoromethoxy)phenyl]-8a,9,11,12-tetrahydropyrazino[2′,1′:3,4][1,4]oxazepino[5,6,7-de]quinazolin-10(8H)-yl]prop-2-en-1-one] are 87% and 1480 nM.
In the same order, the values of `C=CC(=O)N1CCN2c3ncnc4cc(-c5cccc(N=S(C)(C)=O)c5)c(Cl)c(c34)OC[C@@H]2C1` [Example 36, 1-[(8aS)-6-Chloro-5-(3-{[dimethyl(oxido)-lambda~6~- sulfanylidene]amino}phenyl)-8a,9,11,12-tetrahydropyrazino[2′,1′:3,4][1,4]oxazepino[5,6,7-de]quinazolin-10(8H)-yl]prop-2-en-1-one] are 21% and 6380 nM.
For `C=CC(=O)N1CCN2c3ncnc4cc(-c5cccc6c(C)n(C)nc56)c(Cl)c(c34)OC[C@@H]2C1` [Example 37, 1-[(8aS)-6-Chloro-5-(2,3-dimethyl-2H-indazol-7-yl)-8a,9,11,12-tetrahydropyrazino[2′,1′:3,4][1,4]oxazepino[5,6,7-de]quinazolin-10(8H)-yl]prop-2-en-1-one] the same measures were 49% and 2730 nM.
As for `C=CC(=O)N1CCN2c3ncnc4cc(-c5cc(CO)ccc5F)c(Cl)c(c34)OC[C@@H]2C1` [Example 38, 1-[(8aS)-6-Chloro-5-[2-fluoro-5-(hydroxymethyl)phenyl]-8a,9,11,12-tetrahydropyrazino[2′,1′:3,4][1,4]oxazepino[5,6,7-de]quinazolin-10(8H)-yl]prop-2-en-1-one], the “KRasG12C M.S. Binding Mean adduct %” value in assay [1] is listed as 82%. In addition, the half-inhibitory concentration (IC50) in assay [2] turned out to be 1280 nM.
For the compound `C=CC(=O)N1CCN2c3ncnc4cc(-c5cccc6cnn(C)c56)c(Cl)c(c34)OC[C@@H]2C1` [Example 39, 1-[(8aS)-6-Chloro-5-(1-methyl-1H-indazol-7-yl)-8a,9,11,12-tetrahydropyrazino[2′,1′:3,4][1,4]oxazepino[5,6,7-de]quinazolin-10(8H)-yl]prop-2-en-1-one], the “KRasG12C M.S. Binding Mean adduct %” value in assay [1] is recorded as 79%. For the same compound, in assay [2], the IC50 worked out at 803 nM.
For `C=CC(=O)N1CCN2c3ncnc4cc(-c5cc(F)ccc5F)c(Cl)c(c34)OC[C@@H]2C1` [Example 40, 1-[(8aS)-6-Chloro-5-(2,5-difluorophenyl)-8a,9,11,12-tetrahydropyrazino[2′,1′:3,4][1,4]oxazepino[5,6,7-de]quinazolin-10(8H)-yl]prop-2-en-1-one] the same measures were 67% and 955 nM.
Regarding `C=CC(=O)N1CCN2c3ncnc4cc(-c5ccccc5C)c(Cl)c(c34)OC[C@@H]2C1` [Example 41, 1-[(8aS)-6-Chloro-5-(2-methylphenyl)-8a,9,11,12-tetrahydropyrazino[2′,1′:3,4][1,4]oxazepino[5,6,7-de]quinazolin-10(8H)-yl]prop-2-en-1-one], the “KRasG12C M.S. Binding Mean adduct %” value in assay [1] is given as 100%. In addition, the IC50 in assay [2] came to 479 nM.
In the same order, the values of `C=CC(=O)N1CCN2c3ncnc4cc(-c5ccccc5Cl)c(Cl)c(c34)OC[C@@H]2C1` [Example 42, 1-[(8aS)-6-Chloro-5-(2-chlorophenyl)-8a,9,11,12-tetrahydropyrazino[2′,1′:3,4][1,4]oxazepino[5,6,7-de]quinazolin-10(8H)-yl]prop-2-en-1-one] are 100% and 247 nM.
For `C=CC(=O)N1CCN2c3ncnc4cc(-c5cccc6c5COCCO6)c(Cl)c(c34)OC[C@@H]2C1` [Example 43, 1-[(8aS)-6-Chloro-5-(2,3-dihydro-5H-1,4-benzodioxepin-6-yl)-8a,9,11,12-tetrahydropyrazino[2′,1′:3,4][1,4]oxazepino[5,6,7-de]quinazolin-10(8H)-yl]prop-2-en-1-one] the same measures were 56% and 1490 nM.
In the same order, the values of `C=CC(=O)N1CCN2c3ncnc4cc(-c5cccc6ccc(=O)n(C)c56)c(Cl)c(c34)OC[C@@H]2C1` [Example 44, 8-[(8aS)-10-Acryloyl-6-chloro-8,8a,9,10,11,12-hexahydropyrazino[2′,1′:3,4][1,4]oxazepino[5,6,7-de]quinazolin-5-yl]-1-methylquinolin-2(1H)-one] are 51% and 3620 nM.
In the case of `C=CC(=O)N1CCN2c3ncnc4cc(-c5cccc6c5ncn6C)c(Cl)c(c34)OC[C@@H]2C1` [Example 45, 1-[(8aS)-6-Chloro-5-(1-methyl-1H-benzimidazol-4-yl)-8a,9,11,12-tetrahydropyrazino[2′,1′:3,4][1,4]oxazepino[5,6,7-de]quinazolin-10(8H)-yl]prop-2-en-1-one], in assay [1], the “KRasG12C M.S. Binding Mean adduct %” value came out at 72%. For the same compound, the 50% inhibitory concentration (IC50) in assay [2] amounted to 1580 nM.
As to `C=CC(=O)N1CCN2c3ncnc4cc(-c5cn(C)c6ccccc56)c(Cl)c(c34)OC[C@@H]2C1` [Example 46, 1-[(8aS)-6-Chloro-5-(1-methyl-1H-indol-3-yl)-8a,9,11,12-tetrahydropyrazino[2′,1′:3,4][1,4]oxazepino[5,6,7-de]quinazolin-10(8H)-yl]prop-2-en-1-one], the “KRasG12C M.S. Binding Mean adduct %” value in assay [1] is listed as 65%. For the same compound, the IC50 in assay [2] is 1510 nM.
Turning to `C=CC(=O)N1CCN2c3ncnc4cc(-c5cccc6oc(=O)n(C)c56)c(Cl)c(c34)OC[C@@H]2C1` [Example 47, 4-[(8aS)-10-Acryloyl-6-chloro-8,8a,9,10,11,12-hexahydropyrazino[2′,1′:3,4][1,4]oxazepino[5,6,7-de]quinazolin-5-yl]-3-methyl-1,3-benzoxazol-2(3H)-one], the “KRasG12C M.S. Binding Mean adduct %” value in assay [1] was 9%. Besides, the IC50 in assay [2] is 9820 nM.
In the same order, the values of `C=CC(=O)N1CCN2c3ncnc4cc(-c5cc(Cl)ccc5OC)c(Cl)c(c34)OC[C@@H]2C1` [Example 48, 1-[(8aS)-6-Chloro-5-(5-chloro-2-methoxyphenyl)-8a,9,11,12-tetrahydropyrazino[2′,1′:3,4][1,4]oxazepino[5,6,7-de]quinazolin-10(8H)-yl]prop-2-en-1-one] are 68% and 6310 nM.
As for `C=CC(=O)N1CCN2c3ncnc4cc(-c5ccccc5CC(N)=O)c(Cl)c(c34)OC[C@@H]2C1` [Example 49, 2-{2-[(8aS)-10-Acryloyl-6-chloro-8,8a,9,10,11,12-hexahydropyrazino[2′,1′:3,4][1,4]oxazepino[5,6,7-de]quinazolin-5-yl]phenyl}acetamide], the “KRasG12C M.S. Binding Mean adduct %” value in assay [1] is reported as 28%. The IC50 in assay [2] turned out to be 7530 nM.
For `C=CC(=O)N1CCN2c3ncnc4cc(-c5ccc(F)cc5Cl)c(Cl)c(c34)OC[C@@H]2C1` [Example 50, 1-[(8aS)-6-Chloro-5-(2-chloro-4-fluorophenyl)-8a,9,11,12-tetrahydropyrazino[2′,1′:3,4][1,4]oxazepino[5,6,7-de]quinazolin-10(8H)-yl]prop-2-en-1-one] the same measures were 100% and 956 nM.
For `C=CC(=O)N1CCN2c3ncnc4cc(-c5cc(F)ccc5OC)c(Cl)c(c34)OC[C@@H]2C1` [Example 51, 1-[(8aS)-6-Chloro-5-(5-fluoro-2-methoxyphenyl)-8a,9,11,12-tetrahydropyrazino[2′,1′:3,4][1,4]oxazepino[5,6,7-de]quinazolin-10(8H)-yl]prop-2-en-1-one] the same measures were 57% and 5100 nM.
For `C=CC(=O)N1CCN2c3ncnc4cc(-c5ccc(O)cc5)c(Cl)c(c34)OC[C@@H]2C1` [Example 52, 1-[(8aS)-6-Chloro-5-(4-hydroxyphenyl)-8a,9,11,12-tetrahydropyrazino[2′,1′:3,4][1,4]oxazepino[5,6,7-de]quinazolin-10(8H)-yl]prop-2-en-1-one] the same measures were 17% and 5360 nM.
